Assay results: ChEMBL document CHEMBL5233217, “Modification of 7-piperazinylquinolone antibacterials to promising anticancer lead compounds: Synthesis and in vitro studies” (Eur J Med Chem, 2020)

Key:
[1] = tested on: CAKI-1; experiment: Anticancer activity against human CAKI-1 cells assessed as cell growth inhibition; type: functional; details: pooled result: one value given for 3 cell lines, strains, targets or settings
[2] = tested on: HL-60; experiment: Anticancer activity against human HL-60 cells assessed as reduction in cell viability incubated for 24 hrs by MTT assay; type: functional, cell-based; details: HL-60, 24 h
[3] = tested on: HL-60; experiment: Anticancer activity against human HL-60 cells assessed as reduction in cell viability incubated for 48 hrs by MTT assay; type: functional, cell-based; details: HL-60, 48 h
[4] = tested on: SMMC-7721; experiment: Antiproliferative activity against human SMMC-7721 cells assessed as reduction in cell viability incubated for 24 hrs by MTT assay; type: functional, cell-based; details: SMMC-7721, 24 h
[5] = tested on: MCF7; experiment: Antiproliferative activity against human MCF7 cells assessed as reduction in cell viability incubated for 24 hrs by MTT assay; type: functional, cell-based; details: MCF7, 24 h
[6] = tested on: HCT-8; experiment: Antiproliferative activity against human HCT-8 cells assessed as reduction in cell viability incubated for 24 hrs by MTT assay; type: functional, cell-based; details: HCT-8, 24 h
[7] = tested on: A549; experiment: Anticancer activity against human A549 cells assessed as reduction in cell viability by MTT assay; type: functional, cell-based
[8] = tested on: SMMC-7721; experiment: Antiproliferative activity against human SMMC-7721 cells assessed as reduction in cell viability; type: functional, cell-based
[9] = tested on: L1210; experiment: Antiproliferative activity against mouse L1210 cells assessed as reduction in cell viability; type: functional, cell-based
[10] = tested on: HL-60; experiment: Antiproliferative activity against human HL-60 cells assessed as reduction in cell viability; type: functional, cell-based
[11] = tested on: Hep 3B2; experiment: Antiproliferative activity against human Hep3B cells assessed as reduction in cell viability; type: functional, cell-based
[12] = tested on: CAPAN-1; experiment: Antiproliferative activity against human CAPAN-1 cells assessed as reduction in cell viability; type: functional, cell-based
[13] = tested on: Hep 3B2; experiment: Antiproliferative activity against human Hep3B cells assessed as reduction in cell viability incubated for 48 hrs by MTT assay; type: functional, cell-based
[14] = tested on: SMMC-7721; experiment: Antiproliferative activity against human SMMC-7721 cells assessed as reduction in cell viability incubated for 48 hrs by MTT assay; type: functional, cell-based; details: SMMC-7721, 48 h
[15] = tested on: MCF7; experiment: Antiproliferative activity against human MCF7 cells assessed as reduction in cell viability incubated for 48 hrs by MTT assay; type: functional, cell-based; details: MCF7, 48 h
[16] = tested on: HCT-8; experiment: Antiproliferative activity against human HCT-8 cells assessed as reduction in cell viability incubated for 48 hrs by MTT assay; type: functional, cell-based; details: HCT-8, 48 h
[17] = Cytotoxicity against mouse BMSC cells assessed as reduction in cell viability incubated for 48 hrs by MTT assay; type: toxicity, cell-based
[18] = tested on: SW-620; experiment: Antiproliferative activity against human SW620 cells assessed as inhibition of cell proliferation by CCK-8 assay; type: functional, cell-based
[19] = tested on: MGC-803; experiment: Antiproliferative activity against human MGC-803 cells assessed as inhibition of cell proliferation by CCK-8 assay; type: functional, cell-based
[20] = tested on: PC-3; experiment: Antiproliferative activity against human PC-3 cells assessed as inhibition of cell proliferation by CCK-8 assay; type: functional, cell-based
[21] = tested on: NCI-H460; experiment: Antiproliferative activity against human NCI-H460 cells assessed as inhibition of cell proliferation by CCK-8 assay; type: functional, cell-based
[22] = tested on: MCF7; experiment: Antiproliferative activity against human MCF7 cells assessed as inhibition of cell proliferation by CCK-8 assay; type: functional, cell-based
[23] = tested on: HepG2; experiment: Antiproliferative activity against human HepG2 cells assessed as inhibition of cell proliferation by CCK-8 assay; type: functional, cell-based
[24] = tested on: LOX IMVI; experiment: Anticancer activity against human LOX IMVI cells assessed as cell growth inhibition by sulforhodamine B assay; type: functional
[25] = tested on: SK-MEL-2; experiment: Anticancer activity against human SK-MEL-2 cells assessed as cell growth inhibition by sulforhodamine B assay; type: functional
[26] = tested on: SK-MEL-5; experiment: Anticancer activity against human SK-MEL-5 cells assessed as cell growth inhibition by sulforhodamine B assay; type: functional
[27] = tested on: UACC-257; experiment: Anticancer activity against human UACC-257 cells assessed as cell growth inhibition by sulforhodamine B assay; type: functional
[28] = tested on: HOP-92; experiment: Anticancer activity against human HOP-92 cells assessed as cell growth inhibition by sulforhodamine B assay; type: functional
[29] = tested on: L1210; experiment: Anticancer activity against mouse L1210 cells assessed as reduction in cell viability by MTT assay; type: functional, cell-based
[30] = tested on: PANC-1; experiment: Antiproliferative activity against human PANC-1 cells assessed as reduction in cell viability incubated for 24 to 72 hrs by MTT assay; type: functional, cell-based
[31] = tested on: CAPAN-1; experiment: Antiproliferative activity against human CAPAN-1 cells assessed as reduction in cell viability incubated for 24 to 72 hrs by MTT assay; type: functional, cell-based
[32] = tested on: SW48; experiment: Anticancer activity against human SW48 cells assessed as reduction in cell viability by MTT assay; type: functional, cell-based
[33] = tested on: A2780; experiment: Anticancer activity against human cisplatin resistant A2780 cells assessed as reduction in cell viability by MTT assay; type: functional, cell-based
[34] = tested on: L1210; experiment: Antiproliferative activity against mouse L1210 cells assessed as reduction in cell viability incubated for 48 hrs by MTT assay; type: functional, cell-based; details: L1210, 48 h
[35] = tested on: HL-60; experiment: Antiproliferative activity against human HL-60 cells assessed as reduction in cell viability incubated for 48 hrs by MTT assay; type: functional, cell-based; details: HL-60, 48 h
[36] = tested on: SMMC-7721; experiment: Antitumor activity against human SMMC-7721 cells assessed as reduction in cell viability by MTT assay; type: functional, cell-based
[37] = tested on: L1210; experiment: Antitumor activity against mouse L1210 cells assessed as reduction in cell viability by MTT assay; type: functional, cell-based
[38] = tested on: HL-60; experiment: Antitumor activity against human HL-60 cells assessed as reduction in cell viability by MTT assay; type: functional, cell-based
[39] = tested on: Hep 3B2; experiment: Antitumor activity against human Hep3B cells assessed as reduction in cell viability by MTT assay; type: functional, cell-based
[40] = tested on: CAPAN-1; experiment: Antitumor activity against human CAPAN-1 cells assessed as reduction in cell viability by MTT assay; type: functional, cell-based
[41] = tested on: Huh-7; experiment: Anticancer activity against human Huh-7 cells assessed as reduction in cell viability incubated for 24 hrs by MTT assay; type: functional, cell-based; details: Huh-7, 24 h
[42] = tested on: A549; experiment: Antitumor activity against human A549 cells assessed as reduction in cell viability incubated for 72 hrs by MTT assay; type: functional, cell-based; details: A549, 72 h
[43] = tested on: HepG2; experiment: Antitumor activity against human HepG2 cells assessed as reduction in cell viability incubated for 72 hrs by MTT assay; type: functional, cell-based; details: HepG2, 72 h
[44] = tested on: MCF7; experiment: Antitumor activity against human MCF7 cells assessed as reduction in cell viability incubated for 72 hrs by MTT assay; type: functional, cell-based; details: MCF7, 72 h
[45] = tested on: PC-3; experiment: Antitumor activity against human PC-3 cells assessed as reduction in cell viability incubated for 72 hrs by MTT assay; type: functional, cell-based; details: PC-3, 72 h
[46] = tested on: HeLa; experiment: Antitumor activity against human HeLa cells assessed as reduction in cell viability incubated for 72 hrs by MTT assay; type: functional, cell-based

C=C1CC(CN2CCN(c3cc4c(cc3F)c(=O)c(C(=O)O)cn4CC)CC2)(c2ccccc2)OC1=O (stereo not given)
GI50 [1]: 3.39 µM

COc1ccc2cc3[n+](cc2c1OC(=O)c1cn(C2CC2)c2cc(N4CCNCC4)c(F)cc2c1=O)CCc1cc2c(cc1-3)OCO2
IC50 [2]: 19.3 µM
IC50 [3]: 15.7 µM

C=C1CC(CN2CCN(c3cc4c(cc3F)c(=O)c(C(=O)O)cn4CC)CC2)(c2ccc(OC)cc2)OC1=O (stereo not given)
GI50 [1]: 6.46 µM

O=C(N/N=C/c1ccc2c(c1)OCO2)c1cn(C2CC2)c2cc(N3CCNCC3)c(F)cc2c1=O
IC50 [4]: 2.9 µM
IC50 [5]: 2.9 µM
IC50 [6]: 2.9 µM

C[C@H]1COc2c(Nn3c(=O)[nH][nH]c3=O)c(F)cc3c(=O)c(C(=O)O)cn1c23
IC50 [7]: 34.5 µM

CCn1cc(-c2nc(SCc3nnc(-c4ccc(F)cc4)o3)n(CN(C)C)n2)c(=O)c2cc(F)c(N3CCN(C)CC3)cc21
IC50 [8]: 1.5 µM
IC50 [9]: 1.5 µM
IC50 [10]: 1.5 µM
IC50 [11]: 1.5 µM
IC50 [12]: 1.5 µM

COc1cc(/C=N/NC(=O)c2cn3c4c(c(N5CCN(C)CC5)c(F)cc4c2=O)OC[C@@H]3C)cc(OC)c1OC
IC50 [13]: 2.21 µM
IC50 [14]: 2.21 µM
IC50 [15]: 2.21 µM
IC50 [16]: 2.21 µM
IC50 at 48 h [17]: 7.46 µM

CCn1cc(-c2nnc(SCc3nnc(-c4ccccc4OC)o3)[nH]2)c(=O)c2cc(F)c(N3CCN(C)CC3)cc21
IC50 [8]: 3.8 µM
IC50 [9]: 3.8 µM
IC50 [10]: 3.8 µM
IC50 [11]: 3.8 µM
IC50 [12]: 3.8 µM

C[C@H]1COc2c(N3CCN(C)CC3)c(F)cc3c(=O)c(-c4nnc(NC(=O)CCCCCCC(=O)NO)s4)cn1c23
IC50 [18]: 0.6 µM
IC50 [19]: 0.6 µM
IC50 [20]: 0.6 µM
IC50 [21]: 0.6 µM
IC50 [22]: 0.6 µM
IC50 [23]: 0.6 µM

COc1ncnc(NS(=O)(=O)c2ccc(/N=C3\C(=O)N(CN4CCN(c5c(F)cc6c(=O)c(C(=O)O)cn(C7CC7)c6c5OC)CC4C)c4ccc(Br)cc43)cc2)c1OC (stereo not given)
GI50 [24]: < 10 µM
GI50 [25]: < 10 µM
GI50 [26]: < 10 µM
GI50 [27]: < 10 µM
GI50 [28]: 0.176 µM

CC1COc2c(N3CCN(C)CC3)c(F)cc3c(=O)c(-c4n[nH]c5cc(-c6ccc(O)c(O)c6)nn45)cn1c23 (stereo not given)
IC50 [29]: 1.2 µM

CN1CCN(c2cc3c(cc2F)c(=O)c(/C=C2\CN(C4CC4)c4cc(N5CCNCC5)c(F)cc4C2=O)cn3C2CC2)CC1
IC50 [30]: 3.1 µM
IC50 [31]: 1.6 µM

C[C@H]1COc2c(Nc3ccc(-n4c(=O)[nH][nH]c4=O)cc3)c(F)cc3c(=O)c(C(=O)O)cn1c23
IC50 [32]: ≤ 43 µM
IC50 [33]: ≤ 43 µM

CC1COc2c(N3CCN(C)CC3)c(F)cc3c(=O)c(-c4nnc5n4N=C(c4ccc(O)c(O)c4)CS5)cn1c23 (stereo not given)
IC50 [29]: 1.8 µM

CCn1cc(-c2nnc(SCc3nnc(-c4ccc(F)cc4)o3)[nH]2)c(=O)c2cc(F)c(N3CCN(C)CC3)cc21
IC50 [8]: 3.8 µM
IC50 [9]: 3.8 µM
IC50 [10]: 3.8 µM
IC50 [11]: 3.8 µM
IC50 [12]: 3.8 µM

O=c1c(-c2nn3c(-c4cn(C5CC5)c5cc(N6CCNCC6)c(F)cc5c4=O)nnc3s2)cn(C2CC2)c2cc(N3CCNCC3)c(F)cc12
IC50 [34]: 3.6 µM
IC50 [35]: 0.54 µM

COc1ccc(-c2csc3nc(-c4cn5c6c(c(N7CCN(C)CC7)c(F)cc6c4=O)OCC5C)nn23)cc1 (stereo not given)
IC50 [36]: 26.7 µM
IC50 [37]: 26.7 µM
IC50 [38]: 26.7 µM
IC50 [39]: 26.7 µM
IC50 [40]: 26.7 µM

Nc1nnc(-c2cn(C3CC3)c3cc(N4CCNCC4)c(F)cc3c2=O)s1
IC50 [41]: 25.8 µM

C[C@H]1COc2c(N3CCN(C)CC3)c(F)cc3c(=O)c(C(=O)NCc4cn(CCCCCCC(=O)NO)nn4)cn1c23
IC50 [42]: 0.3 µM
IC50 [43]: 0.3 µM
IC50 [44]: 0.3 µM
IC50 [45]: 0.3 µM
IC50 [46]: 0.3 µM

O=c1c(-c2nnc3n2N=C(c2ccc(O)c(O)c2)CS3)cn(C2CC2)c2cc(N3CCNCC3)c(F)cc12
IC50 [29]: 1.4 µM

C[C@H]1COc2c(N3CCN(C)CC3)c(F)cc3c(=O)c(-c4nn5c(-c6cn(C7CC7)c7cc(N8CCNCC8)c(F)cc7c6=O)nnc5s4)cn1c23
IC50 [34]: 1.5 µM
